Each structure is given as a SMILES string. Marks after values point to notes of the source that are not given here.

Assay [1] has as its system serum total bile acid (SBA). The assay can be described thus: Duration of action of LUM001 on dog SBA, Method 1 (two meals). The format is in vivo, beagle dogs. The settings on record: 0.2 mg/kg p.o. at 1 hr; full meal 0 hr, half meal 4 hr; 4.5 hr. As for the experimental part:
Male beagle dogs were obtained from Covance Research Products, Cumberland Va. or Marshall Farms USA, Inc., North Rose N.Y. A total of 20 dogs, 1 to 5 years old, 6.8 to 15.6 kg body weight, were used in these experiments. The dogs were conditioned to a 12 hour light/dark cycle and maintained on a feeding restriction of 1 hour per day access to food (Richman Standard Certified Canine Diet #5007, PMI Nutrition, Inc., St. Louis Mo.) from 7 to 8 AM. They were trained to eat a special meal promptly within 20 minutes when presented (1 can. 397 g, Evanger's 100% Beef for Dogs, Evanger's Dog and Cat Food Co., Inc., Wheeling Ill., mixed with 50 g of sharp cheddar cheese.).
SBA was measured by an enzymatic assay. SBA values are expressed as μg of total bile acids/ml of serum.
In dogs a single experimental meal produces a postprandial rise in SBA that is elevated to a peak at 1 hour after feeding and constant for an additional 3 hours. Previous experiments (2) indicate that LUM001 remains active for more than 4.5 hours. To measure the duration of action of an ASBT inhibitor using postprandial SBA levels requires that in the control situation the SBA levels remain elevated and constant for the entire period of compound action, or that the compound be administered long before the postprandial rise occurs, and remain active in the empty digestive system for long periods before feeding. […]

The subject of assay [2] is fecal total bile acid (FBA). The assay can be described thus: Fecal bile acids in dogs, LUM001 daily. The assay is classed as in vivo, beagle dogs. To be noted: 14 Days; for Weight-Adjusted Fecal Total Bile Acids Excretion: n=8. As for the experimental part:
Healthy female and male beagle dogs in the age range of 8 to 10 months were used. The animals were acclimated for at least four weeks before dose administration. Four female and four male dogs per dose group (groups 2-5) were given single daily doses of LUM001 at 1, 4, 12 and 30 mg free form/kg for 13 days. Animals in the control group (group 1) were given the same number of empty capsules as the animals of group 5 to treat all dose groups the same.
Fecal samples were collected to determine the fecal total bile acid (FBA) concentration for each animal. Fecal collections were made during the final 72 hours of the study, for three consecutive 24-hour periods between 9:00 am and 10:00 am each day, prior to dosing and feeding. The separate daily collections from each dog were weighed, combined and homogenized with distilled water in a food processor to generate a homogeneous slurry. Homogenate (1.4 g) was extracted in a final concentration ratio of 2:0.6 of 50% (v/v) tertiary butanol/distilled water for 45 minutes in a 37° C. water bath and subjected to centrifugation for 13 minutes at 2000×g. The concentration of bile acids (mmolesgram homogenate) was determined using a 96-well enzymatic assay system. Aliquots of the fecal extracts (20 μl) were added to two sets of triplicate wells in a 96 well assay plate. A standardized sodium taurocholate solution and a standardized fecal extract solution (previously made from pooled samples and characterized for its bile acid concentration) were also analyzed for assay quality control. Aliquots of sodium taurocholate (20 μl), were serially diluted to generate a standard curve containing 30-540 nmoles/well. A 230 μl aliquot of reaction mixture containing 1M hydrazine hydrate, 0.1 M pyrophosphate and 0.46 mg/ml NAD was added to each well. Subsequently, a 50 μl aliquot of either 3a-hydroxysteroid dehydrogenase enzyme (HSD; 0.8 units/ml) or assay buffer (0.1 M sodium pyrophosphate) was added to one each of the two sets of triplicates. Following 60 minutes of incubation at room temperature, the optical density at 340 nm was measured and the mean of each set of triplicate samples was calculated. The difference in optical density±HSD enzyme was used to determine the bile acid concentration (mM) of each sample based on the sodium taurocholate standard curve. The bile acid concentration of the extract (mmolesgram homogenate), the total weight of the fecal homogenate (grams) and the body weight of the dogs (kg) were used to calculate the corresponding FBA concentration in mmoles/kg/day for each animal. All reagents used for the assay were obtained from Sigma Chemical Co., St. Louis, Mo. (HSD—catalog # H-1506; NAD—catalog # N1636; sodium taurocholate—catalog # T-4009). A one-tailed, paired Student's t-test was used to determine the statistical significance of changes in FBA concentration in treated animals compared to pretreatment values and between treatment groups.

The subject of assay [3] is plasma triglycerides. The assay can be described thus: Plasma triglycerides in ZDF rats, week 3. The format is in vivo. The settings on record: twice daily oral gavage, no dose-related response.
Assay [4] has as its system total serum bile acids. Briefly: Plasma total serum bile acids in ZDF rats, week 3. The assay is classed as in vivo. The settings on record: twice daily oral gavage.
Assay [5] deals with plasma amylase. Briefly: Plasma amylase in ZDF rats, week 3. The format is in vivo. The settings on record: twice daily oral gavage.

On to `CCCCC1(CCCC)CS(=O)(=O)c2ccc(N(C)C)cc2[C@@H](c2ccc(OCc3ccc(C[N+]45CCN(CC4)CC5)cc3)cc2)[C@H]1O` [LUM001], for which the “Serum Bile Acid, mean” value in assay [1] is 2.5* μg/ml. Also, the “Weight-Adjusted Fecal Total Bile Acids Excretion, % change from vehicle group” value in assay [2] (1 mg/kg/day) is reported as “(+63) %”; in assay [2] (4 mg/kg/day), “(+137) %”; in assay [2] (12 mg/kg/day), “(+158) %”; in assay [2] (30 mg/kg/day) it was “(+183) %”. For the same molecule, the “Weight-Adjusted Fecal Total Bile Acids Excretion” value in assay [2] (1 mg/kg/day) was found to be 96 ± 9 µmol/day/kg; in assay [2] (4 mg/kg/day), 140 ± 6 µmol/day/kg; in assay [2] (12 mg/kg/day), 152 ± 13 µmol/day/kg; in assay [2] (30 mg/kg/day), 167 ± 15 µmol/day/kg.

On to `CCCC[C@]1(CC)CS(=O)(=O)c2ccc(N(C)C)cc2[C@@H](c2cccc(NC(=O)N[C@@H]3O[C@H](COS(=O)(=O)[O-])[C@@H](O)[C@H](OCc4ccccc4)[C@H]3O)c2)[C@H]1O.CCO.O.[K+]` [LUM002, potassium((2R,3R,4S,5R,6R)-4-benzyloxy-6-{3-[3-((3S,4R,5R)-3-butyl-7-dimethylamino-3-ethyl-4-hydroxy-1,1-dioxo-2,3,4,5-tetrahydro-1H-benzo[b]thiepin-5-yl)-phenyl]-ureido}-3,5-dihydroxy-tetrahydro-pyran-2-ylmethyl)sulphate ethanolate, hydrate], for which the Fasting plasma triglycerides result in assay [3] was “statistically significant elevations”. Besides, the “Plasma total serum bile acids (SBA)” value in assay [4] is given as “statistically significant reductions in SBA”. For the same molecule, the Plasma amylase result in assay [5] is “Neither LUM002 nor SC-435 caused a statistically significant changes”.

The values above are taken from patent US20140271734A1, “BILE ACID RECYCLING INHIBITORS FOR TREATMENT OF BARRETT'S ESOPHAGUS AND GASTROESOPHAGEAL REFLUX DISEASE” (LUMENA PHARMACEUTICALS, INC., priority 2013, published 2014).
